Measurements reported in patent publication US9994558B2, “Multicyclic compounds and methods of using same” (Karyopharm Therapeutics Inc., priority 2013, dated 2018).

Experiments:
Format in all cases: cell-based
MS751 cells = assay: MTT cell proliferation assay, MS751 cells; details: Homo sapiens, incubation approximately 64-72 hours
Experimental: (§1) The MTT cell proliferation assay was used to study the cytotoxic properties of the compounds. The assay was performed according to the method described by Roche Molecular Biochemicals, with minor modifications. The assay is based on the cleavage of the tetrazolium salt, MTT, in the presence of an electron-coupling reagent. The water-insoluble formazan salt produced must be solubilized in an additional step. Cells grown in a 96-well tissue culture plate were incubated with the MTT solution for approximately 4 hours. After this incubation period, a water-insoluble formazan dye formed. After solubilization, the formazan dye was quantitated using a scanning multi-well spectrophotometer (ELISA reader). […] The cells were seeded at 5,000-10,000 cells in each well of 96-well plate in 100 μL of fresh culture medium and were allowed to attach overnight. The stock solutions of the compounds were diluted in 100 μL cell culture medium to obtain eight concentrations of each test compound, ranging from 1 nM to 30 μM. […] All optical densities were measured at 490 nm using a Vmax Kinetic Microplate Reader (Molecular Devices). In most cases, the assay was performed in duplicate and the results were presented as a mean percent inhibition to the negative control±SE. The following formula was used to calculate the percent of inhibition. Inhibition (%)=(1−(ODo/OD))×100.
(§2) The compounds were tested against MS751, Z138 and 3T3 cells. The MS751 cell line is derived from a metastasis to lymph node of human cervix from a patient diagnosed with squameous cell carcinoma of the cervix. The […] cell line is a mature B-cell acute lymphoblastic leukemia cell line derived from a patient with chronic lymphocytic leukemia. 3T3 cells are standard fibroblast cells; they were originally isolated from Swiss mouse embryo tissue.

3T3 cells = assay: MTT cell proliferation assay, 3T3 cells; details: Mus musculus, NIH3T3; 3T3 fibroblast cells; incubation approximately 64-72 hours
Experimental: as §1, §2

Z138 cells = assay: MTT cell proliferation assay, Z138 cells; details: Homo sapiens, Z-138, incubation approximately 64-72 hours
Experimental: as §1, §2

Row | Structure (SMILES) | IC50 (MS751 cells) [µM] | IC50 (3T3 cells) [µM] | IC50 (Z138 cells) [µM]
1 | CN1CCN(C(=O)c2ccc(-c3ccc(OCCNC(=O)/C=C/c4ccc(N)nc4)c(Cl)c3)cc2)CC1 [Compound 313, (E)-3-(6-aminopyridin-3-yl)-N-(2-(3-chloro-4′-(4-methylpiperazine-1-carbonyl)biphenyl-4-yloxy)ethyl)acrylamide] | < 0.1 | 0.1 to 5 | < 0.1
2 | Cc1cc(-c2ccc(OCCNC(=O)/C=C/c3ccc(N)nc3)c(Cl)c2)ccc1C(=O)N1CCOCC1 [Compound 314, (E)-3-(6-aminopyridin-3-yl)-N-(2-(3-chloro-3′-methyl-4′-(morpholine-4-carbonyl)biphenyl-4-yloxy)ethyl)acrylamide] | < 0.1 | 0.1 to 5 | < 0.1
3 | C=C(C)c1ccc(-c2ccc(OCCNC(=O)/C=C/c3cccnc3)c(Cl)c2)s1 [Compound 315, (E)-N-(2-(2-chloro-4-(5-(prop-1-en-2-yl)thiophen-2-yl)phenoxy)ethyl)-3-(pyridin-3-yl)acrylamide] | 5 to 10 | 5 to 10 | 0.1 to 5
4 | Nc1ccc(/C=C/C(=O)NCCOc2ccc(-c3ccc(C(=O)N4CCOCC4)cc3)cc2Cl)cn1 [Compound 316, (E)-3-(6-aminopyridin-3-yl)-N-(2-(3-chloro-4′-(morpholine-4-carbonyl)biphenyl-4-yloxy)ethyl)acrylamide] | < 0.1 | 0.1 to 5 | < 0.1
5 | Nc1ccc(/C=C/C(=O)NCCOc2ccc(-c3cccc(C(=O)N4CCOCC4)c3)cc2Cl)cn1 [Compound 317, (E)-3-(6-aminopyridin-3-yl)-N-(2-(3-chloro-3′-(morpholine-4-carbonyl)biphenyl-4-yloxy)ethyl)acrylamide] | < 0.1 | > 10 | < 0.1
6 | CC(C)(O)c1ccc(-c2ccc(OCCNC(=O)/C=C/c3ccc(N)nc3)c(Cl)c2)s1 [Compound 319, (E)-3-(6-aminopyridin-3-yl)-N-(2-(2-chloro-4-(5-(2-hydroxypropan-2-yl)thiophen-2-yl)phenoxy)ethyl)acrylamide] | 0.1 to 5 | > 10 | 0.1 to 5
7 | CC(C)(O)c1ccc(-c2ccc(OCCNC(=O)/C=C/c3cccnc3)c(Cl)c2)s1 [Compound 320, (E)-N-(2-(2-chloro-4-(5-(2-hydroxypropan-2-yl)thiophen-2-yl)phenoxy)ethyl)-3-(pyridin-3-yl)acrylamide] | 0.1 to 5 | 5 to 10 | 0.1 to 5
8 | Nc1ccc(/C=C/C(=O)NCCOc2ccc(-c3ccc(C(=O)N4CCOCC4)nc3)cc2Cl)cn1 [Compound 321, (E)-3-(6-aminopyridin-3-yl)-N-(2-(2-chloro-4-(6-(morpholine-4-carbonyl)pyridin-3-yl)phenoxy)ethyl)acrylamide] | < 0.1 | > 10 | < 0.1
9 | CC(=O)c1ccc(-c2ccc(NCCNC(=O)/C=C/c3cccnc3)c(Cl)c2)s1 [Compound 322, (E)-N-(2-(4-(5-acetylthiophen-2-yl)-2-chlorophenylamino)ethyl)-3-(pyridin-3-yl)acrylamide] | 0.1 to 5 | > 10 | 0.1 to 5
10 | CC(=O)c1ccc(-c2ccc(OC(C)(C)CNC(=O)/C=C/c3cccnc3)c(Cl)c2)s1 [Compound 323, (E)-N-(2-(4-(5-acetylthiophen-2-yl)-2-chlorophenoxy)-2-methylpropyl)-3-(pyridin-3-yl)acrylamide] | 5 to 10 | > 10 | 0.1 to 5
11 | CN(C)C(=O)c1ccc(-c2ccc(OCCNC(=O)/C=C/c3ccc(N)nc3)c(Cl)c2)cc1 [Compound 325, (E)-4′-(2-(3-(6-aminopyridin-3-yl)acrylamido)ethoxy)-3′-chloro-N,N-dimethylbiphenyl-4-carboxamide] | 0.1 to 5 | > 10 | 0.1 to 5
12 | Nc1ccc(/C=C/C(=O)NCCOc2ccc(-c3ccc(C(=O)N4CCNCC4)cc3)cc2Cl)cn1 [Compound 326, (E)-3-(6-aminopyridin-3-yl)-N-(2-(3-chloro-4′-(piperazine-1-carbonyl)biphenyl-4-yloxy)ethyl)acrylamide] | < 0.1 | 0.1 to 5 | < 0.1
13 | CC(=O)c1ccc(-c2ccc(OCCNC(=O)/C=C\c3cccnc3)c(Cl)c2)s1 [Compound 327, (Z)—N-(2-(4-(5-acetylthiophen-2-yl)-2-chlorophenoxy)ethyl)-3-(pyridin-3-yl)acrylamide] | 5 to 10 | > 10 | 0.1 to 5
14 | Nc1ccc(/C=C/C(=O)NCCOc2ccc(-c3cnc(C(=O)N4CCOCC4)nc3)cc2Cl)cn1 [Compound 328, (E)-3-(6-aminopyridin-3-yl)-N-(2-(2-chloro-4-(2-(morpholine-4-carbonyl)pyrimidin-5-yl)phenoxy)ethyl)acrylamide] | 0.1 to 5 | > 10 | 0.1 to 5
15 | Nc1ccc(/C=C/C(=O)NCCOc2ccc(-c3ccc(C(=O)N4CCCCC4)cc3)cc2Cl)cn1 [Compound 329, (E)-3-(6-aminopyridin-3-yl)-N-(2-(3-chloro-4′-(piperidine-1-carbonyl)biphenyl-4-yloxy)ethyl)acrylamide] | < 0.1 | > 10 | < 0.1
16 | CC(=O)c1ccc(-c2ccc(OCCNC(=O)/C=C/c3ccc(N)nc3)c(Cl)n2)s1 [Compound 330, (E)-N-(2-(6-(5-acetylthiophen-2-yl)-2-chloropyridin-3-yloxy)ethyl)-3-(6-aminopyridin-3-yl)acrylamide] | 0.1 to 5 | > 10 | 0.1 to 5
17 | CC(=O)c1ccc(-c2cnc(OCCNC(=O)/C=C/c3ccc(N)nc3)c(Cl)c2)s1 [Compound 331, (E)-N-(2-(5-(5-acetylthiophen-2-yl)-3-chloropyridin-2-yloxy)ethyl)-3-(6-aminopyridin-3-yl)acrylamide] | > 10 | > 10 | > 10
18 | Nc1ccc(/C=C/C(=O)NCCOc2cc(Cl)cc(-c3ccc(C(=O)N4CC(F)(F)C4)cc3)c2)cn1 [Compound 332, (E)-3-(6-aminopyridin-3-yl)-N-(2-(5-chloro-4′-(3,3-difluoroazetidine-1-carbonyl)biphenyl-3-yloxy)ethyl)acrylamide] | < 0.1 | 0.1 to 5 | < 0.1
19 | CC(C)(CNC(=O)/C=C/c1ccc(N)nc1)Oc1ccc(-c2ccc(C(=O)N3CC(F)(F)C3)cc2)cc1Cl [Compound 333, (E)-3-(6-aminopyridin-3-yl)-N-(2-(3-chloro-4′-(3,3-difluoroazetidine-1-carbonyl)biphenyl-4-yloxy)-2-methylpropyl)acrylamide] | 0.1 to 5 | > 10 | 0.1 to 5
20 | CN(CCOc1ccc(-c2ccc(C(=O)N3CC(F)(F)C3)cc2)cc1Cl)C(=O)/C=C/c1ccc(N)nc1 [Compound 334, (E)-3-(6-aminopyridin-3-yl)-N-(2-(3-chloro-4′-(3,3-difluoroazetidine-1-carbonyl)biphenyl-4-yloxy)ethyl)-N-methylacrylamide] | 0.1 to 5 | 5 to 10 | < 0.1
21 | CC1(C)COCCN1C(=O)c1ccc(-c2ccc(OCCNC(=O)/C=C/c3ccc(N)nc3)c(Cl)c2)cc1 [Compound 335, (E)-3-(6-aminopyridin-3-yl)-N-(2-(3-chloro-4′-(3,3-dimethylmorpholine-4-carbonyl)biphenyl-4-yloxy)ethyl)acrylamide] | < 0.1 | 0.1 to 5 | < 0.1
22 | Nc1ccc(/C=C/C(=O)NCCCOc2ccc(-c3ccc(C(=O)N4CC(F)(F)C4)cc3)cc2Cl)cn1 [Compound 336, (E)-3-(6-aminopyridin-3-yl)-N-(3-(3-chloro-4′-(3,3-difluoroazetidine-1-carbonyl)biphenyl-4-yloxy)propyl)acrylamide] | < 0.1 | 0.1 to 5 | < 0.1
23 | Nc1ccc(/C=C/C(=O)NCCS(=O)(=O)c2ccc(-c3ccc(C(=O)N4CC(F)(F)C4)cc3)cc2Cl)cn1 [Compound 337, (E)-3-(6-aminopyridin-3-yl)-N-(2-(3-chloro-4′-(3,3-difluoroazetidine-1-carbonyl)biphenyl-4-ylsulfonyl)ethyl)acrylamide] | > 10 | > 10 | > 10
24 | Nc1ccc(/C=C/C(=O)NCCOc2ccc(-c3ccc(C(=O)N4CC(F)(F)C4)cc3)cc2C(F)(F)F)cn1 [Compound 338, (E)-3-(6-aminopyridin-3-yl)-N-(2-(4′-(3,3-difluoroazetidine-1-carbonyl)-3-(trifluoromethyl)biphenyl-4-yloxy)ethyl)acrylamide] | < 0.1 | < 0.1 | < 0.1
25 | Nc1ccc(/C=C/C(=O)NCCOc2ccc(-c3ccc(C(=O)N4CCOCC4)cc3)cc2C(F)(F)F)cn1 [Compound 339, (E)-3-(6-aminopyridin-3-yl)-N-(2-(4′-(morpholine-4-carbonyl)-3-(trifluoromethyl)biphenyl-4-yloxy)ethyl)acrylamide] | < 0.1 | 0.1 to 5 | < 0.1
